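Step 1: Grow cells in 96-well plates. Step 2: Expose to compound for 48 hours at 5 concentrations. Step 3: Interpolate endpoints linearly; if unreached, use highest concentration. Here, GI50 denotes the concentration required for 50% inhibition of growth. Definition used: TGI = concentration required for complete inhibition of growth.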
Experiments:
Assay in all cases: NCI tumour cell line growth inhibition, 48 h
[1] = system: IGROV1 ovarian
[2] = system: P388 leukemia
[3] = system: SN12C renal
[4] = system: SF-295 CNS
[5] = system: RXF 393 renal
[6] = system: HOP-18 NSCLC
[7] = system: LOX IMVI melanoma
[8] = system: NCI-H23 lung
[9] = system: SNB-78 CNS
[10] = system: CAKI-1 renal
[11] = system: MCF7 breast
[12] = system: UO-31 renal
[13] = system: SF-539 CNS
[14] = system: HCT-15 colon
[15] = system: SF-268 CNS
[16] = system: HOP-62 NSCLC
[17] = system: NCI/ADR-RES ovarian
[18] = system: SW-620 colon
[19] = system: OVCAR-8 ovarian
[20] = system: EKVX NSCLC
[21] = system: COLO 205 colon
[22] = system: K-562 leukemia
[23] = system: OVCAR-5 ovarian
[24] = system: SNB-75 CNS
[25] = system: UACC-257 melanoma
[26] = system: A498 renal
[27] = system: SK-MEL-28 melanoma
[28] = system: SK-MEL-2 melanoma
[29] = system: SN12K1 renal
[30] = system: HT29 colon
[31] = system: MALME-3M melanoma
[32] = system: SK-OV-3 ovarian
[33] = system: OVCAR-3 ovarian
[34] = system: OVCAR-4 ovarian
[35] = system: NCI-H522 lung
[36] = system: KM20L2 colon
[37] = system: NCI-H460 lung
[38] = system: M19-MEL melanoma
[39] = system: SK-MEL-5 melanoma
[40] = system: HL-60(TB) leukemia
[41] = system: KM12 colon
[42] = system: UACC-62 melanoma
[43] = system: CCRF-CEM leukemia
[44] = system: SNB-19 CNS
[45] = system: U251 CNS
[46] = system: A549 NSCLC
[47] = system: RPMI-8226 leukemia
[48] = system: HOP-92 NSCLC
[49] = system: MOLT-4 leukemia
[50] = system: HCT-116 colon
[51] = system: HCC-2998 colon
[52] = system: P388/ADR leukemia
[53] = system: DLD-1 colon
[54] = system: NCI-H226 lung

Q: How did the GI50 [1] turn out when `CS(=O)(=O)[O-].CS(=O)(=O)[O-].NC1CCCCC1N.[Pt+4]` (stereo not drawn) was run?
A: > 69.4 µM

Q: What about the TGI [1] of the same compound?
A: > 100 µM

Q: What about the GI50 [2] of the same compound?
A: 4.81 µM

Q: What about the TGI [2] of the same compound?
A: > 55.7 µM

Q: And the GI50 [3]?
A: > 84.7 µM

Q: What about the TGI [3] of the same compound?
A: > 100 µM

Q: What about the GI50 [4] of the same compound?
A: > 100 µM

Q: And the TGI [4]?
A: > 100 µM

Q: And the GI50 [5]?
A: > 100 µM

Q: What about the TGI [5] of the same compound?
A: > 100 µM

Q: And the GI50 [6]?
A: > 100 µM

Q: What about the TGI [6] of the same compound?
A: > 100 µM

Q: And the GI50 [7]?
A: > 61 µM

Q: And the TGI [7]?
A: > 100 µM

Q: And the GI50 [8]?
A: 88 µM

Q: And the TGI [8]?
A: > 100 µM

Q: And the GI50 [9]?
A: > 100 µM

Q: What about the TGI [9] of the same compound?
A: > 100 µM

Q: What about the GI50 [10] of the same compound?
A: 41.8 µM

Q: And the TGI [10]?
A: > 100 µM

Q: What about the GI50 [11] of the same compound?
A: 66.3 µM

Q: And the TGI [11]?
A: > 100 µM

Q: And the GI50 [12]?
A: > 96.5 µM

Q: What about the TGI [12] of the same compound?
A: > 100 µM

Q: What about the GI50 [13] of the same compound?
A: > 100 µM

Q: And the TGI [13]?
A: > 100 µM

Q: And the GI50 [14]?
A: > 100 µM

Q: What about the TGI [14] of the same compound?
A: > 100 µM

Q: And the GI50 [15]?
A: > 65.9 µM

Q: And the TGI [15]?
A: > 100 µM

Q: And the GI50 [16]?
A: > 100 µM

Q: What about the TGI [16] of the same compound?
A: > 100 µM

Q: And the GI50 [17]?
A: > 55.2 µM

Q: And the TGI [17]?
A: > 100 µM

Q: And the GI50 [18]?
A: 13 µM

Q: What about the TGI [18] of the same compound?
A: > 100 µM

Q: And the GI50 [19]?
A: > 74 µM

Q: What about the TGI [19] of the same compound?
A: > 100 µM

Q: And the GI50 [20]?
A: > 100 µM

Q: And the TGI [20]?
A: > 100 µM

Q: What about the GI50 [21] of the same compound?
A: 35.9 µM

Q: What about the TGI [21] of the same compound?
A: > 100 µM

Q: And the GI50 [22]?
A: 79.1 µM

Q: What about the TGI [22] of the same compound?
A: > 100 µM

Q: And the GI50 [23]?
A: > 100 µM

Q: What about the TGI [23] of the same compound?
A: > 100 µM

Q: And the GI50 [24]?
A: > 68 µM

Q: And the TGI [24]?
A: > 100 µM

Q: And the GI50 [25]?
A: > 100 µM

Q: And the TGI [25]?
A: > 100 µM

Q: And the GI50 [26]?
A: > 100 µM

Q: And the TGI [26]?
A: > 100 µM

Q: What about the GI50 [27] of the same compound?
A: 71.6 µM

Q: And the TGI [27]?
A: > 100 µM

Q: What about the GI50 [28] of the same compound?
A: > 100 µM

Q: And the TGI [28]?
A: > 100 µM

Q: What about the GI50 [29] of the same compound?
A: > 100 µM

Q: What about the TGI [29] of the same compound?
A: > 100 µM

Q: What about the GI50 [30] of the same compound?
A: 62.3 µM

Q: And the TGI [30]?
A: > 100 µM

Q: And the GI50 [31]?
A: > 100 µM

Q: And the TGI [31]?
A: > 100 µM

Q: And the GI50 [32]?
A: > 100 µM

Q: What about the TGI [32] of the same compound?
A: > 100 µM

Q: What about the GI50 [33] of the same compound?
A: > 100 µM

Q: What about the TGI [33] of the same compound?
A: > 100 µM

Q: What about the GI50 [34] of the same compound?
A: > 100 µM

Q: What about the TGI [34] of the same compound?
A: > 100 µM

Q: What about the GI50 [35] of the same compound?
A: > 71.1 µM

Q: And the TGI [35]?
A: > 100 µM

Q: And the GI50 [36]?
A: > 51.3 µM

Q: What about the TGI [36] of the same compound?
A: > 100 µM

Q: And the GI50 [37]?
A: 47.2 µM

Q: What about the TGI [37] of the same compound?
A: > 100 µM

Q: What about the GI50 [38] of the same compound?
A: 34.2 µM

Q: What about the TGI [38] of the same compound?
A: > 100 µM

Q: And the GI50 [39]?
A: 48.4 µM

Q: What about the TGI [39] of the same compound?
A: > 100 µM

Q: And the GI50 [40]?
A: 33.5 µM

Q: What about the TGI [40] of the same compound?
A: > 93.5 µM

Q: What about the GI50 [41] of the same compound?
A: > 100 µM

Q: And the TGI [41]?
A: > 100 µM

Q: And the GI50 [42]?
A: > 100 µM

Q: And the TGI [42]?
A: > 100 µM

Q: And the GI50 [43]?
A: 40.2 µM

Q: And the TGI [43]?
A: > 100 µM

Q: And the GI50 [44]?
A: > 100 µM

Q: What about the TGI [44] of the same compound?
A: > 100 µM

Q: And the GI50 [45]?
A: > 87.2 µM

Q: What about the TGI [45] of the same compound?
A: > 100 µM

Q: What about the GI50 [46] of the same compound?
A: 80.3 µM

Q: And the TGI [46]?
A: > 100 µM

Q: And the GI50 [47]?
A: 17.7 µM

Q: What about the TGI [47] of the same compound?
A: > 100 µM

Q: And the GI50 [48]?
A: > 100 µM

Q: What about the TGI [48] of the same compound?
A: > 100 µM

Q: What about the GI50 [49] of the same compound?
A: 29 µM

Q: What about the TGI [49] of the same compound?
A: > 100 µM

Q: What about the GI50 [50] of the same compound?
A: 37.4 µM

Q: What about the TGI [50] of the same compound?
A: > 100 µM

Q: What about the GI50 [51] of the same compound?
A: > 100 µM

Q: What about the TGI [51] of the same compound?
A: > 100 µM

Q: What about the GI50 [52] of the same compound?
A: 43 µM

Q: What about the TGI [52] of the same compound?
A: > 100 µM

Q: And the GI50 [53]?
A: > 100 µM

Q: And the TGI [53]?
A: > 100 µM

Q: What about the GI50 [54] of the same compound?
A: 39.2 µM

Q: What about the TGI [54] of the same compound?
A: > 100 µM
